Earlier results as cited in PMC11333285, “Inhibition of lysine acetyltransferase KAT6 in ER^+HER2^− metastatic breast cancer: a phase 1 trial” (Nature Medicine, 2024).
Where two headings read alike, the source gives them in different places.

How the values were obtained:
[1] = tested on: HR+/HER2− mBC; parameters: method as in PMID 34357781; conditions: HR+/HER2− mBC progressed after aromatase inhibitors
[2] = tested on: HR+/HER2− mBC; parameters: method as in PMID 35583555, PMID 35584336; conditions: all comers after first-line CDK4/6 inhibitors and ET
[3] = tested on: mBC with ESR1 mutations; parameters: method as in PMID 35584336; conditions: patients with ESR1 mutations

In the case of `Nc1ccccc1NC(=O)c1ccc(CNC(=O)OCc2cccnc2)cc1` [entionostat plus ET], the mPFS [1] is given as 3.3 months.

In the case of `C[C@]12CC[C@@H]3c4ccc(O)cc4C[C@@H](CCCCCCCCC[S+]([O-])CCCC(F)(F)C(F)(F)F)[C@H]3[C@@H]1CC[C@@H]2O` (stereo partly shown) [fulvestrant], the CBR [2] is given as 13.7% and the mPFS [2] is given as 2 months.

For `CCNCCc1ccc(CN(CC)c2cc(OC)ccc2[C@@H]2CCc3cc(O)ccc3C2)cc1` [elacestrant], the mPFS [3] is given as 3.8 months.
